Laboratory results reported in the NIST ThermoML archive (doi:10.1016/j.jct.2006.04.005).

Columns and labels:
[1] = 303.15 K, 101 kPa, Liquid; for viscosity: Capillary tube (Ostwald / Ubbelohde) method; for mass density: Pycnometric method
[2] = xn = mol fraction of the nth substance listed; details: 303.15 K, 101 kPa, Liquid; for viscosity: Capillary tube (Ostwald / Ubbelohde) method; for excess molar volume: Direct dilatometry; for mass density: Pycnometric method

Clc1ccccc1Cl [1,2-dichlorobenzene]
[1]
Details | mass density [kg/m3] | speed of sound [m/s] | viscosity [mPa·s]
– | 1299.24 | 1261 | 1.302

Cc1cccc(Cl)c1 [3-chlorotoluene] + C[S+](C)[O-]
[2]
Details | excess molar volume [m3/mol] | mass density [kg/m3] | speed of sound [m/s] | viscosity [mPa·s]
x2 = 0 | – | 1065.21 | 1280 | 0.78
x2 = 0.0868 | 1.2e-08 | – | 1300 | 1.02
x2 = 0.1205 | 1.7e-08 | – | 1308 | 1.073
x2 = 0.1911 | 2.8e-08 | – | 1324 | 1.164
x2 = 0.2207 | 3.1e-08 | – | – | 1.203
x2 = 0.261 | 3.7e-08 | – | 1342 | 1.249
x2 = 0.3125 | 4.1e-08 | – | 1356 | 1.305
x2 = 0.3829 | 4.7e-08 | – | 1372 | 1.38
x2 = 0.4156 | 4.9e-08 | – | 1382 | 1.415
x2 = 0.502 | 5.2e-08 | – | 1404 | 1.503
x2 = 0.5419 | 5e-08 | – | 1412 | 1.541
x2 = 0.6205 | 4.7e-08 | – | 1429 | 1.602
x2 = 0.7125 | 3.7e-08 | – | 1450 | 1.674
x2 = 0.7517 | 3.3e-08 | – | 1457 | 1.704
x2 = 0.824 | 2.5e-08 | – | 1468 | 1.735
x2 = 0.9246 | 1.3e-08 | – | 1469 | 1.783

Clc1cccc(Cl)c1 [1,3-dichlorobenzene]
[1]
Details | mass density [kg/m3] | speed of sound [m/s] | viscosity [mPa·s]
– | 1277.12 | 1242 | 1.025

C[S+](C)[O-] [dimethyl sulfoxide] + Cc1cccc([N+](=O)[O-])c1
[2], x1 = 1
Details | mass density [kg/m3] | speed of sound [m/s]
– | 1091.35 | 1470

C[S+](C)[O-] [dimethyl sulfoxide] + Clc1cccc(Cl)c1
[2], x1 = 1
Details | mass density [kg/m3] | speed of sound [m/s]
– | 1091.35 | 1470

C[S+](C)[O-] [dimethyl sulfoxide] + Clc1ccccc1Cl
[2], x1 = 1
Details | mass density [kg/m3] | speed of sound [m/s] | viscosity [mPa·s]
– | 1091.35 | 1470 | 1.803

C[S+](C)[O-] [dimethyl sulfoxide] + Cc1cccc(Cl)c1
[2], x1 = 1
Details | mass density [kg/m3] | speed of sound [m/s] | viscosity [mPa·s]
– | 1091.35 | 1470 | 1.803

Cc1ccccc1[N+](=O)[O-] [2-nitrotoluene] + C[S+](C)[O-]
[2]
Details | excess molar volume [m3/mol] | mass density [kg/m3] | speed of sound [m/s] | viscosity [mPa·s]
x2 = 0 | – | 1153.24 | – | 1.911
x2 = 0.0815 | 2.3e-08 | – | 2039 | 1.903
x2 = 0.1525 | 5.4e-08 | – | 1986 | 1.896
x2 = 0.2422 | 9.3e-08 | – | 1922 | 1.888
x2 = 0.2913 | 1.13e-07 | – | 1888 | 1.883
x2 = 0.3415 | 1.28e-07 | – | 1849 | 1.878
x2 = 0.4026 | 1.45e-07 | – | 1807 | 1.872
x2 = 0.4505 | 1.55e-07 | – | 1773 | 1.867
x2 = 0.5119 | 1.58e-07 | – | 1731 | 1.861
x2 = 0.5523 | 1.59e-07 | – | 1704 | 1.857
x2 = 0.602 | 1.54e-07 | – | 1674 | 1.852
x2 = 0.6521 | 1.43e-07 | – | 1645 | 1.847
x2 = 0.7122 | 1.25e-07 | – | 1612 | 1.841
x2 = 0.7516 | 1.13e-07 | – | 1591 | 1.836
x2 = 0.8115 | 8.5e-08 | – | 1564 | 1.829
x2 = 0.9227 | 3.5e-08 | – | 1508 | 1.814

Cc1cccc([N+](=O)[O-])c1 [3-nitrotoluene]
[1]
Details | mass density [kg/m3] | viscosity [mPa·s]
– | 1147.67 | 1.777
